From patent US20020055488A1, “Prevention and treatment of streptococcal and staphylococcal infection” (priority 2000, published 2002)

Assays:
[1] = test system: Group A streptococcus (GAS); test: GAS attachment to murine keratinocyte cell line PAM2.12 with exogenous hyaluronic acid; type: cell-based, Streptococcus pyogenes; conditions: for inhibition of GAS attachment to PAM2.12 keratinocytes: polysaccharide added together with GAS, 45 minutes incubation
Experimental: For bacterial adherence assays, keratinocytes were seeded at 10^5 cells per well in collagen-coated tissue culture wells (Nalge Nunc International, Naperville, Ill.), incubated for 3 days at 34° C. in 8% CO2, washed, and overlaid with medium containing 10^6 CFU of GAS per well. After incubation for 1 hour at 34° C. in 8% CO2 the keratinocyte monolayers were washed twice to remove nonadherent bacteria, then the number of cell-associated bacteria was determined by quantitative culture after releasing the keratinocytes with trypsin and lysing them in sterile water, experiments testing the effects of exogenous hyaluronic acid on GAS adherence were performed using the mouse keratinocyte cell line, PAM 2.12 (Song, I. S. 2000, Exp. Dermatol. 9:42-52). Cells were seeded in collagen-coated tissue culture wells at 10^5 cells per well, cultured for 3 days at 37° C. in 5% CO2, then inoculated with 10^6 CFU of GAS per well in medium containing exogenous hyaluronic acid (from rooster comb, Sigma Chemicals, St. Louis, Mo.), no inhibitor, or a control polysaccharide, alginic acid, a high-molecular-weight polymer of mannuronic acid and guluronic acid (Protonal Durvillea Alginate, Pronova. Biopolymer, Inc., Portsmouth, N.H.). Cells were incubated for 45 minutes at 37° C. in 5% CO2, then processed for enumeration of adherent bacteria as described above. In experiments to test whether exogenous hyaluronic acid could promote dissociation of GAS attached to keratinocytes, GAS were allowed to attach to keratinocytes in the absence of inhibitor; […], no inhibitor, or alginic acid. After 45 minutes of incubation, the number of adherent bacteria was enumerated as described above.
To investigate the specificity of the interaction between the GAS capsule and CD44 on epithelial cells, the ability of exogenous hyaluronic acid to compete with GAS for binding to murine keratinocytes was examined. Addition of exogenous hyaluronic acid inhibited GAS attachment to the murine keratinocyte cell line PAM2.12 by >95% (P<0.03, FIG. 5). Alginic acid, another high molecular weight acidic polysaccharide, had no effect, supporting the hypothesis that adherence depends on a specific interaction between the GAS hyaluronic acid capsule and CD44.

[2] = test system: Group A streptococcus (GAS); test: GAS pharyngeal colonization in mice after intranasal pretreatment with hyaluronic acid; type: in vivo, Streptococcus pyogenes; conditions: intranasal 20 μl of 1 mg/ml, 5 hours prior to GAS inoculation, compared to PBS or alginic acid pretreated, 3 days
Experimental: For pharyngeal colonization experiments, 4 to 6 week-old female mice were anesthetized by inhalation of methoxyflurane, then inoculated intranasally with approximately 5×10^6 CFU of GAS in 20 μl phosphate-buffered saline, pH 7.4. Throat swabs were collected from anesthetized mice daily and were plated on Todd-Hewitt-blood agar containing streptomycin 500 μg/ml to inhibit growth of normal flora. For some experiments, the bacterial inoculum was suspended in phosphate-buffered saline containing 50μg of mAb, either KM81, a rat anti-mouse CD44 mAb (Miyake, K. 1990, J. Exp. Med. 171:477-488), or 4H1, an isotype-matched control monoclonal antibody directed to Pseudomonas aeruginosa lipopolysaccharide (donated by Michael Preston, Brigham and Women's Hospital, Boston, Mass.). Both antibodies were purified by protein G affinity chromatography (GammaBind Plus Sepharose, Amersham Pharmacia Biotech, Piscataway, N.J.) prior to use.
Differences in attachment of GAS to keratinocytes were evaluated Using the Mann Whitney U test (Instat version 1.12, GraphPad Software, Inc. San Diego, Calif.). Repeated measures logistic regression was used to test for the effect of anti-CD44 mAb or erogenous hyaluronic acid treatment on the proportion of mice with positive throat cultures over three days of observation (Zeger, S. L. et al. 1986, Biometrics. 42:121-130). […]

[3] = test system: Group A Streptococcus (GAS, strain 950771); test: Bacterial binding to human keratinocyte monolayers after pre-incubation, GAS; type: cell-based, Streptococcus pyogenes; conditions: 10 bacteria per keratinocyte, 1 hour, alginate control
Experimental: (§1) Keratinocyte monolayers were pre-incubated with alginate (AL, solid bars) or hyaluronic cid (HA, hatched bars) prior to surface inoculation with either Group A Streptococcus (GAS, strain 950771), Group B Streptococcus (GBS, strain 515), Streptococcus pneumoniae (S. pneumo, type 6), or Staphylococcus aureus (S. aureus, type 8) at a multiplicity of infection of 10 bacteria per keratinocyte for 1 hour.

[4] = test system: Group B Streptococcus (GBS, strain 515); test: Bacterial binding to human keratinocyte monolayers after pre-incubation, GBS; type: cell-based; conditions: 10 bacteria per keratinocyte, 1 hour, alginate control
Experimental: as §1

[5] = test system: Streptococcus pneumoniae (S. pneumo, type 6); test: Bacterial binding to human keratinocyte monolayers after pre-incubation, S. pneumoniae; type: cell-based; conditions: 10 bacteria per keratinocyte, 1 hour, alginate control
Experimental: as §1

[6] = test system: Staphylococcus aureus (S. aureus, type 8); test: Bacterial binding to human keratinocyte monolayers after pre-incubation, S. aureus; type: cell-based; conditions: 10 bacteria per keratinocyte, 1 hour, alginate control
Experimental: as §1

In the case of alginic acid, the “inhibition of GAS attachment to PAM2.12 keratinocytes” value [1] is reported as “had no effect”.
For hyaluronic acid, the “reduction of GAS attachment to keratinocytes” value ([1]; addition of hyaluronic acid delayed for 2 hours) was 70-80%, the “reduction in bacterial attachment to keratinocytes” value ([1]; hyaluronic acid added up to 45 minutes after adding GAS) was > 90% and the “inhibition of GAS attachment to PAM2.12 keratinocytes” value [1] was > 95%. The “reduction of GAS pharyngeal colonization (positive throat cultures)” value [2] was 60 to 80%, the “inhibition of binding of GAS to human keratinocytes” value [3] was “more than 80%” and the “inhibition of binding of GBS to human keratinocytes” value [4] was “more than 80%”. For the same substance, the “inhibition of binding of S. pneumoniae to human keratinocytes” value [5] was “more than 80%” and the “inhibition of binding of S. aureus to human keratinocytes” value [6] was “more than 80%”.
